Key:
Type in all cases: cell-based
MDA-MB-231 cells = assay: Anti-proliferative activity, MDA-MB-231 breast carcinoma cells (Coulter counting); conditions: Homo sapiens, MDA-MB-231, 72 h; mean ± SD of three independent experiments; 3 days of incubation; read-out: Tumor cells IC50 MDA-MB-231
Source text: (§1) The anti-proliferative activity of the synthesized benzofurane derivatives was studied in three human cancer cell lines [breast carcinoma (MDA-MB-231), lymphoblastic leukemia (CEM) and cervical carcinoma (HeLa) cells] and one endothelial cell line [human microvascular endothelial cells (HMEC-1)].
(§2) The human microvascular endothelial cell line HMEC-1 was obtained at passage 12 from the Centers for Disease Control and Prevention (Atlanta, GA, USA) and used from passage 17 till 27. Human breast carcinoma (MDA-MB-231), human cervical carcinoma (HeLa) and human T-lymphoid (CEM) cells were obtained from ATCC (Middlesex, UK). Cell lines were maintained in culture for up to 3 months and grown in DMEM, supplemented with 10% FBS, 0.01 M Hepes and 1 mM sodium pyruvate. All cells were cultured in a humidified 5% CO2 incubator at 37 °C.
(§3) HMEC-1 cells were seeded in 48-well plates at 20,000 cells/well. After 24 h, 5-fold dilutions of the compounds were added. The cells were allowed to proliferate 4 days in the presence of the compounds, trypsinized, and counted by means of a Coulter counter (Analis, Belgium). HeLa and MDA-MB-231 cells were seeded in 48-well plates at 10,000 cells/well. After 24 h, different concentrations of the compounds were added. After 3 days of incubation, the cells were trypsinized and counted in a Coulter counter. Suspension cells (human lymphoid Cem cells) were seeded in 96-well plates at 60,000 cells/well in the presence of different concentrations of the compounds, allowed to proliferate for 96 h, and counted in a Coulter counter. The 50% inhibitory concentration (IC50) was defined as the compound concentration required to reduce cell proliferation by 50%.

HeLa cells = assay: Anti-proliferative activity, HeLa cervical carcinoma cells (Coulter counting); conditions: Homo sapiens, 72 h, mean ± SD of three independent experiments, 3 days of incubation, read-out: Tumor cells IC50 HeLa
Source text: as §1, §2, §3

HMEC-1 cells = assay: IncuCyte scratch wound migration assay with PI uptake; conditions: for uptake of PI (toxicity): at the lowest concentration inhibiting wound closure (0.5, 0.06 and 0.06 µM)
Description: Proper tubulin organization is not only required for cell division but also for cell motility and migration. Therefore, we evaluated the capacity of the compounds to inhibit the migration of HMEC-1 endothelial cells. To this end, we used the 96-well IncuCyte® scratch wound assay. After the creation of a cell-free zone (wound) in a confluent cell monolayer, compounds were added, and relative wound density was measured every minute and visualized in time-course plots. PI was added to all wells to visualize toxicity over time, i.e. only dead cells take up this cell-impermeable dye.
Figure 7 Inhibition of HMEC-1 migration. The 96-well IncuCyte® scratch wound assay was used to create a cell-free zone (wound) in a confluent cell monolayer. Next, compounds were added and the relative wound density was measured every minute and visualized in time-course plots (left panels). PI is added to all wells to visualize toxicity over time, i.e. only dead cells take up this cell-impermeable dye (right panels). Average ± SEM (n = 3) are shown.
Wounds were created in confluent HMEC-1 cells by means of the “Incucyte® wound maker”. Next, different concentrations of compound and PI were added and images were taken every 2 min for the duration of the experiment. The algorithm masks each phase-contrast image to identify the position of the wounded (cell-free) and unwounded (cell-occupied) zones. Relative wound density is calculated and visualized in time-course plots.

| Structure (SMILES) | IC50 (MDA-MB-231 cells) [nM] | IC50 (HeLa cells) [nM] | lowest concentration inhibiting wound closure (HMEC-1 cells) [µM] | uptake of PI (toxicity) (HMEC-1 cells) |
| --- | --- | --- | --- | --- |
| CC(Nc1cccc2cc(COCCCO)oc12)=C1C(=O)CC(c2ccccc2)CC1=O (centres unmarked) [Compound 28, 2-(1-((2-((3-Hydroxypropoxy)methyl)benzofuran-7-yl)amino)ethylidene)-5-phenylcyclohexane-1,3-dione] | 12 ± 5 | 34 ± 3 | 0.06 | No increased uptake of PI |
| COCc1cc2cccc(NC(C)=C3C(=O)CC(c4ccccc4)CC3=O)c2o1 (centres unmarked) [Compound 27, 2-(1-((2-(Methoxymethyl)benzofuran-7-yl)amino)ethylidene)-5-phenylcyclohexane-1,3-dione] | 9 ± 1 | 30 ± 2 | 0.06 | No increased uptake of PI |

Source: article PMC5844890 (Scientific Reports, 2018)
